According to patent publication US20140178479A1, “Concentrated Felbamate Formulations for Parenteral Administration” (PEROSPHERE, INC., priority 2011, published 2014):

How the values were obtained:
[1] = supersaturated solution: remaining in solution after heating and cooling; assay type: physicochemical
Experimental: Felbamate was added at a concentration of up to 20 weight per volume percent to polyethylene glycol 300 and polyethylene glycol 400. Solutions were heated above 70° C. after which the felbamate dissolved.
Felbamate was added at a concentration of up to 10 weight per volume percent in 65 volume per volume percent polyethylene glycol 300, 20 volume per volume percent polyethylene glycol 400, and 15 volume per volume percent propylene glycol. In a separate experiment, felbamate was added at a concentration of up to 10 weight per volume percent in 65 volume per volume percent polyethylene glycol 300, 20 volume per volume percent polyethylene glycol 400, 10 volume per volume percent propylene glycol, and 5 volume per volume percent polyethylene glycol 600.
Solutions were heated above 70° C. after which the felbamate dissolved.
Fluorofelbamate was added at a concentration of 10 weight per volume percent to polyethylene glycol 300. Solutions were heated above approximately 80° C. after which the fluorofelbamate dissolved.

[2] = cited from earlier work
CYP2C19 = CYP2C19 (Homo sapiens, UniProt P33261); conditions: cited from earlier work
Sequence of CYP2C19 (P33261 whole entry): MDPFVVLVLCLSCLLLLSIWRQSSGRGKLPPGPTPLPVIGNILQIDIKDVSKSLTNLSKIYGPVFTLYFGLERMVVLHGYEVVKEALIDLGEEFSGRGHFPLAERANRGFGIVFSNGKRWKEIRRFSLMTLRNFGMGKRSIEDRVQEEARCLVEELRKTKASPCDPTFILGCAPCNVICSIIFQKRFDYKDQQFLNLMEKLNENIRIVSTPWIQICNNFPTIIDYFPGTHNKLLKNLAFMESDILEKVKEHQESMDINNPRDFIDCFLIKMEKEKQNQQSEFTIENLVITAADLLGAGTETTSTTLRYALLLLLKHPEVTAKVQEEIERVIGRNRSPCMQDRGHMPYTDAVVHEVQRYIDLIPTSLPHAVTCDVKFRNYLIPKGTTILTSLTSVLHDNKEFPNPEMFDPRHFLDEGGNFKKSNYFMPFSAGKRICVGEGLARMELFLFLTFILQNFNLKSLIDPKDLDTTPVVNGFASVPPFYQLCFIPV

[3] = injection of supersaturated solution into 37° C. phosphate buffered saline; assay type: physicochemical
Experimental: A supersaturated 10 weight per volume percent felbamate solution in PEG 300 was injected into 37° C. phosphate buffered saline. […] Additional felbamate supersaturated solution at the same concentration was added 10 microliters at a time without forming solid particles up to at least 50 microliters.

[4] = SEM imaging of precipitated microparticles; assay type: physicochemical
Experimental: Felbamate was dissolved in dimethyl sulfoxide to create a five weight per volume percent solution. The felbamate solution was introduced into one hundred times the volume of a one weight per volume percent polysorbate 20 aqueous solution stirred at 1,500 revolutions per minute using an overhead mixer equipped with an impeller blade. The resultant microparticles of felbamate were imaged using SEM. […] Under the same experimental conditions, Span 80 was substituted for polysorbate 20.
Felbamate was dissolved in glycerin heated above 120° C. to create a 5% weight per volume solution. The felbamate solution was introduced into one hundred times the volume of a one weight per volume percent polysorbate 20 aqueous solution stirred at 1,500 revolutions per minute using an overhead mixer equipped with an impeller blade. The resultant microparticles of felbamate were imaged using SEM.

[5] = cited from earlier work; remark: listed apart in the source

SMILES: NC(=O)OCC(F)(COC(N)=O)c1ccccc1 [Fluorofelbamate]
- time remained in solution ([1]; 10 w/v % in polyethylene glycol 300, heated above approx. 80° C., cooled to approx. 25°): at least 1 month
- solubility in water [2]: less than one

SMILES: NC(=O)OCC(COC(N)=O)c1ccccc1 [Felbamate]
- effect on CYP2C19 (CYP2C19): inhibitor
- volume of additional supersaturated solution added without forming solid particles ([3]; 10 w/v % in PEG 300, added 10 microliters at a time to 37° C. phosphate buffered saline): at least 50 microliters
- solid particles on injection ([3]; supersaturated 10 w/v % solution in PEG 300 injected into 37° C. phosphate buffered saline): No solid particles were observed
- solution state after heating or cooling ([1]; PEG 300 / PEG 400 sample heated or cooled to 40° C., 4° C., and −20° C. for 30 minutes, then returned to 25° C.): remained in solution
- concentration of samples that remained in solution ([1]; polyethylene glycol 300 and polyethylene glycol 400, heated above 70° C., cooled to room temperature approx. 25°): ≤ 12.5 weight per volume percent
- time remained in solution ([1]; up to 10 w/v % in 65 v/v % PEG 300, 20 v/v % PEG 400, 10 v/v % propylene glycol, 5 v/v % PEG 600, approx. 25° C.): at least 1 day
- time remained in solution ([1]; up to 10 w/v % in 65 v/v % PEG 300, 20 v/v % PEG 400, 15 v/v % propylene glycol, approx. 25° C.): at least 1 day
- time remained in solution ([1]; up to approx. 12.5 weight per volume percent in polyethylene glycol 300 and polyethylene glycol 400, room temperature approx. 25°): at least eight
- particle size by SEM ([4]; glycerin / polysorbate 20 microparticles compared with native powder): hundreds of microns
- particle form ([4]; same conditions, Span 80 substituted for polysorbate 20): formed crystals, which are unsuitable for injection
- share of aplastic anemia cases that are fatal ([5]; chronic oral dosing): 30%
- aplastic anemia after a single administration ([5]; single administration): has not been shown to develop
- solubility in water [2]: less than one
